Test results taken from patent publication US7981512B2, “Organic polymer-magnetic particles and process for producing same” (JSR Corporation, priority 2006, dated 2011).

Details: distilled water
Protocol: In the invention, the solubility in water at 25° C. of the monomer is determined by slowly adding the monomer in question to distilled water at 25° C. while stirring until the monomer separates from the water. The amount (% by mass) of the monomer in the solution immediately before separation is defined as the solubility.

Row | SMILES | solubility in water at 25° C.
1 | C=C(C)C(=O)OCCOC(=O)c1ccccc1C(=O)O [2-methacryloyloxyethyl phthalate] | less than 0.2 % by mass
2 | C=C(C)C(=O)O [methacrylic acid] | 100 % by mass
